Assay type in all cases: biochemical
One assay has as its target T1, CYP2A13 (Homo sapiens, UniProt Q16696).
T1 construct: made in house; host or cells: Sf9 insect cells, recombinant baculovirus
T1 sequence (Q16696 1-494): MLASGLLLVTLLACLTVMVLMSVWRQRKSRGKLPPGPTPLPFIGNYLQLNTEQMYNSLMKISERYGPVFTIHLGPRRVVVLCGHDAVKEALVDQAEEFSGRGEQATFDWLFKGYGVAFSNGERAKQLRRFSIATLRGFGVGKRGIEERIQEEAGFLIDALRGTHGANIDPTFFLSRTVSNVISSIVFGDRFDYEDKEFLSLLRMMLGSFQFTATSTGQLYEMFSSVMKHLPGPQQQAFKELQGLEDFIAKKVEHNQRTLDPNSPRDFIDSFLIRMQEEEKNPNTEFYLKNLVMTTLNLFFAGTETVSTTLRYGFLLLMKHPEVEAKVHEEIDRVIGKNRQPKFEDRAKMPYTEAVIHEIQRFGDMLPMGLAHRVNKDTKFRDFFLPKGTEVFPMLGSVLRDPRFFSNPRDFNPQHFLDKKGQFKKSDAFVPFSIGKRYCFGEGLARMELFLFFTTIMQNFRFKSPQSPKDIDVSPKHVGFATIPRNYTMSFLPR
The assay is described as follows: Evaluation of test compounds as inhibitors of CYP2A13 (coumarin to Umbelliferone, fluorescence). The following applies: substrate coumarin 0.006 mM; microsomes with 7 pmoles CYP2A13; 60 min at 37° C.; read-out: CYP2A13 inhibitor activity IC50. An excerpt: P450 reductase is commercially available (BD Biosciences Gentest, USA).
Microsomes were used which contained 7 pmoles CYP2A13.

The next assay addresses T2, CYP2A6 (Homo sapiens, UniProt P11509).
T2 construct: purchased BD Biosciences Gentest, USA
T2 sequence (P11509 1-494): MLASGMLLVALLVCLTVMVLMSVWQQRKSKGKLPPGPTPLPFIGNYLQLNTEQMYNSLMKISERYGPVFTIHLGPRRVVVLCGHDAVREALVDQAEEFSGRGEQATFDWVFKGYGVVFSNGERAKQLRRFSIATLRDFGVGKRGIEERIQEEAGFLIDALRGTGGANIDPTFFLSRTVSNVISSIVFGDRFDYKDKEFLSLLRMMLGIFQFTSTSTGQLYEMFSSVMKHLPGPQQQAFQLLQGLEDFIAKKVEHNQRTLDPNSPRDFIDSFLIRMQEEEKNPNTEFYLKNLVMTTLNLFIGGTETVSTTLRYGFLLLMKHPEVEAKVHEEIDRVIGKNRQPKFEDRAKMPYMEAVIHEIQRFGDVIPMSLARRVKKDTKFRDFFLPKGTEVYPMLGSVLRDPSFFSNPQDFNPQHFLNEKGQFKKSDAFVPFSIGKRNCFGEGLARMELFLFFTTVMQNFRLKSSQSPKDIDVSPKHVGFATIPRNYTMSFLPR
The assay is described as follows: Evaluation of test compounds as inhibitors of CYP2A6 (coumarin to Umbelliferone, fluorescence). To be noted: substrate coumarin 0.003 mM; microsomes with 2 pmoles CYP2A6; 60 min at 37° C.; read-out: CYP2A6 inhibitor activity IC50. The procedure:
Test compounds that inhibit the activity of CYP2A6 are identified by using the same principle as described in Example 1, first paragraph.
A test compound (details see Table 2) was incubated with CYP2A6 in the presence of a cytochrome P450 reductase. CYP2A6 and P450 reductase were employed in form of microsomes (BD Biosciences Gentest, USA). Microsomes were used which contained 2 pmoles CYP2A6 and an amount of NADPH-P450 reductase corresponding to cytochrome c reductase activity of 87 nmole/(min×mg protein). […] The concentration of the standard substrate coumarin was 0.003 mM.
The samples were analysed spectrofluorometrically according to the procedure described in Example 1.

The target of a further assay is T3, CYP2B6 (Homo sapiens, UniProt P20813).
T3 construct: made in house; host or cells: Sf9 insect cells, recombinant baculoviruses
T3 sequence (P20813 1-491): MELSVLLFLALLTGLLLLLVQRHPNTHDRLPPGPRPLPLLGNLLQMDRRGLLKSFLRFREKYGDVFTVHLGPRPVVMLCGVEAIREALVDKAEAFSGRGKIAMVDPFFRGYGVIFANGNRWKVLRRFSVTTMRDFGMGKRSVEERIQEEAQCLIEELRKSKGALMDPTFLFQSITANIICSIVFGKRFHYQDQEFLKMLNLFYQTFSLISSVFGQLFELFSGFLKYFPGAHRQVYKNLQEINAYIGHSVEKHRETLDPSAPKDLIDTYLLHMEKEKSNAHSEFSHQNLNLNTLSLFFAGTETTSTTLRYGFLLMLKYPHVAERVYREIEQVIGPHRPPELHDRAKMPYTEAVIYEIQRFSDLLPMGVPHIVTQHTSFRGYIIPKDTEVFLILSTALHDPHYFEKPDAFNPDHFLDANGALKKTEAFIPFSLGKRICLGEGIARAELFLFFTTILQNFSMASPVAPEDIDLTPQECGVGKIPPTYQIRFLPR
The assay is described as follows: Inhibition of human CYP2B6 (7-ethoxy-4-trifluoromethyl-coumarin, fluorescence). The following applies: substrate 7-ethoxy-4-trifluoromethyl-coumarin 6 μM; microsomes with 1.5 pmoles CYP2B6; 40 min at 37° C.; read-out: CYP2B6 inhibitor activity IC50. The procedure:
Test compounds that inhibit the activity of CYP2B6 are identified by using the same principle as described in Example 1, first paragraph.
A test compound (details see Table 4) was incubated with CYP2B6 in the presence of a cytochrome P450 reductase. CYP2B6 and P450 reductase are produced using recombinant baculoviruses and co-expressing the two proteins in Sf9 insect cells as described in Example 1. Alternatively, microsomes containing CYP2B6 and the reductase are commercially available (BD Biosciences Gentest, USA). Microsomes were used which contained 1.5 pmoles CYP2B6. Potassium phosphate buffer final concentration was 100 mM, (1M stock, pH 7.4). […] The concentration of the standard substrate 7-ethoxy-4-trifluoromethyl-coumarin was 6 μM. […] The samples were incubated for 40 min at 37° C.

Consider 13 molecules from patent publication US20100111888A1, “Organic Compounds and Compositions Having the Ability to Modulate Fragrance Compositions” (GIVAUDAN SA, priority 2007, published 2010).

A word on the IC50: it is the concentration at which inhibition is half-maximal. Take `CCCC/C(=C\C1CC1)C(C)=O` [Compound ID 1, (E)-3-(cyclopropylmethylene)heptan-2-one]: the IC50 at CYP2A13 was found to be 0.5 µM; on CYP2A6, 3 µM; at CYP2B6, 3.9 µM.

`CCCCCC/C(=C\C1CC1)C(C)=O` [Compound ID 2, (E)-3-(cyclopropylmethylene)nonan-2-one]: the values for the IC50 on CYP2A13, at CYP2A6 and on CYP2B6 were 1.1 µM, 8 µM and 3.5 µM, respectively.

Consider `CCCCC/C(=C\C1CC1)C(C)=O` [Compound ID 3, (E)-3-(cyclopropylmethylene)octan-2-one], for which the IC50 worked out at 0.3 µM at CYP2A13, 7 µM on CYP2A6 and 4 µM at CYP2B6.

Take `CCCCCC(Cc1ccccc1)C(C)=O` (stereo not drawn) [Compound ID 4, 3-phenylmethyloctan-2-one]: the IC50 on CYP2A13 was found to be 4.8 µM; on CYP2A6, 148 µM.

On to `CCCCC/C(=C\c1ccccc1)C(C)=O` [Compound ID 5, (E)-3-benzylideneoctan-2-one], for which the IC50 was determined as 0.6 µM on CYP2A13 and 141 µM on CYP2A6.

Turning to `CCCCC/C(C(C)=O)=C(/C)c1ccccc1` [Compound ID 51, (E)-3-(1-phenylethylidene)octan-2-one], the IC50 at CYP2A13 turned out to be 2.5 µM.

On to `CCCCC/C(=C\C1CC1)C(=O)c1ccccc1` [Compound ID 52, (E)-2-(cyclopropylmethylene)-1-phenylheptan-1-one], for which, on CYP2A13, the IC50 is 6.6 µM.

As for `CCCCC/C(=C\C(C)(C)C)C(=O)OC` [Compound ID 53, (E)-methyl 2-(2,2-dimethylpropylidene)heptanoate], the IC50 on CYP2A13 worked out at 1.9 µM.

Take `CCCCC/C(=C\C(C)(C)C)C(=O)O` [Compound ID 54, (E)-2-(2,2-dimethylpropylidene)heptanoic acid]: at CYP2A13, the IC50 stood at 2.6 µM.

With `CCCCC/C(=C\C(C)(C)C)C(C)=O` [Compound ID 55, (E)-3-(2,2-dimethylpropylidene)octan-2-one], the IC50 at CYP2A13 was 0.3 µM.

Turning to `CCCCC/C(=C\C(C)C)C(C)=O` [Compound ID 56, (E)-3-(2-methylpropylidene)octan-2-one], at CYP2A13, the IC50 amounted to 0.2 µM.

With `CCCCC/C(=C\C1CC1)C(=O)CC` [Compound ID 57, (E)-4-(cyclopropylmethylene)nonan-3-one], the IC50 at CYP2A13 was 0.3 µM.

For the molecule `CCCCC/C(=C\c1ccccc1)C(=O)CC` [Compound ID 58, (E)-4-benzylidenenonan-3-one], the IC50 at CYP2A13 came to 0.5 µM.
